# Values quoted from earlier work as cited in patent publication US12102645B2, “Fluticasone furoate nasal preparation composition” (TOKO YAKUHIN KOGYO CO., LTD., priority 2018, dated 2024).
smiles,measurement,value
"C[C@@H]1C[C@H]2[C@@H]3C[C@H](F)C4=CC(=O)C=C[C@]4(C)[C@@]3(F)[C@@H](O)C[C@]2(C)[C@@]1(OC(=O)c1ccco1)C(=O)SCF [Fluticasone furoate, 6α,9-difluoro-17β-[(fluoromethylsulfanyl)carbonyl]-11β-hydroxy-16α-methyl-3-oxoandrosta-1,4-dien-17α-yl furan-2-carboxylate]",Solubility in water,very slightly soluble
